What all share (test): In-vitro tumor cell proliferation inhibition, MTT
Holding throughout (format): cell-based, human

Assay [1] relates to liver cancer cell strain Hep G2.
The test system of assay [2] is breast carcinoma cell strain MDA-MB-468.
Assay [3] deals with gastric cancer cell strain MK-45. To be noted: 72 hours, read-out: MK45 (IC50).
For assay [4], the system named is acute myelogenous leukemia cell strain MV4-11.
Assay [5] deals with breast carcinoma cell strain BT474. The essentials:
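A431, HCC827, SW620 and BT474 cells (HCC827 seeded at 6×10^4 cells/ml) treated overnight-after-plating with graded compound concentrations for 72 h at 37° C; MTT read at 570 nm. Inhibition calculated versus untreated control, triplicate wells, ≥3 repeats; reported as IC50 or inhibitory rate.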

Assay [6] relates to chronic granulocytic leukemia cell strain K562.
Assay [7] relates to colon cancer cell strain HCT116.
For assay [8], the system named is non-small cell lung carcinoma cell strain H1975 (EGFR L858R/T790M mutation).
Assay [9] relates to non-small cell lung carcinoma cell strain H292 (EGFR WT).
Assay [10] deals with non-small cell lung carcinoma cell strain HCC827. Put shortly: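 Cells grown in RPMI-1640 with 10% FBS, seeded overnight (HCC827 at 6×10^4 cells/ml), then exposed to graded compound concentrations for 72 h at 37 °C, 5% CO2, with 1% DMSO solvent control. MTT absorbance at 570 nm; inhibition relative to control; triplicate wells, ≥3 repeats.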
The subject of assay [11] is non-small cell lung carcinoma cell strain PC-9 (EGFR delE746-A750 deletion mutation). To be noted: 72 hours.
[12] abbreviates: 72 hours, read-out: HEPG2 (IC50).

This is an account of results in patent publication US9096601B2 (CSPC Zhongqi Pharmaceutical Technology (Shijiazhuang) Co., …, priority 2010, dated 2015).

Where two headings read alike, the source gives them in different places.

As a reminder, the IC50 is the concentration at which inhibition is half-maximal. For the molecule `CC(C)n1c(Nc2ccccc2)nc2cnc(Nc3ccc(C(=O)NN4CCN(C)CC4)cc3)nc21` [Compound 8-1], the IC50 in assay [1] (setting [12]) was more than 10 µM; in [2] (72 hours), 2060 nM; in assay [3], 6800 nM; in assay [4] (72 hours), 89 nM; in assay [5] (72 hours), 2130 nM; in assay [6] (72 hours) it was 1080 nM. Also, the IC50 in assay [7] (72 hours) was more than 10000 nM; in [8] (72 hours), 7.6 µM; in assay [9] (72 hours) it was 1390 nM; in assay [10] (72 hours) it was 2 nM; in assay [11], 105 nM.
For the molecule `CC(C)n1c(Nc2ccc(F)c(Cl)c2)nc2cnc(Nc3ccc(C(=O)NN4CCN(C)CC4)cc3)nc21` [Compound 8-2], the 50% inhibitory concentration (IC50) in assay [1] (setting [12]) was more than 10 µM; in assay [2] (72 hours), 6130 nM; in assay [3], more than 1000 nM; in [4] (72 hours), 1770 nM; in assay [5] (72 hours), 1860 nM; in assay [6] (72 hours), 3730 nM. Besides, the half-maximal inhibitory concentration (IC50) in [7] (72 hours) is 7810 nM; in assay [8] (72 hours), more than 10 µM; in [9] (72 hours) it was 883 nM; in assay [10] (72 hours), 1.3 nM; in assay [11], 558 nM.
As for `COc1cc(C(=O)NN2CCN(C)CC2)ccc1Nc1ncc2nc(Nc3ccccc3)n(C(C)C)c2n1` [Compound 8-7, 3-methoxy-4-(9-isopropyl-8-phenylamino-9H-purin-2-ylamino)-N-(4-methylpiperazin-1-yl)benzamide], the half-maximal inhibitory concentration (IC50) in assay [1] (Homo sapiens, HepG2, 72 hours) is more than 10 µM; in assay [2] (Homo sapiens, MDA-MB-468, 72 hours), more than 10000 nM; in assay [3] (Homo sapiens) it was 3760 nM; in assay [4] (Homo sapiens, MV4-11, 72 hours) it was more than 10000 nM; in assay [5] (Homo sapiens, BT-474, 72 hours), 5820 nM; in assay [6] (Homo sapiens, K562, 72 hours), more than 10000 nM. The IC50 in assay [7] (Homo sapiens, HCT-116, 72 hours) was more than 10000 nM; in assay [8] (Homo sapiens, NCI-H1975, 72 hours), more than 10 µM; in assay [9] (Homo sapiens, NCI-H292, 72 hours), 138 nM; in assay [10] (Homo sapiens, HCC827, 72 hours) it was 7.5 nM; in [11] (Homo sapiens) it was 12.1 nM.
On to `CC(C)n1c(Nc2ccccc2)nc2cnc(Nc3ccc(C(=O)NC4CCN(C)CC4)cc3)nc21` [Compounds 8-9], for which the 50% inhibitory concentration (IC50) in assay [1] (setting [12]) was more than 10 µM; in assay [2] (72 hours) it was 1320 nM; in [3], 764 nM; in assay [4] (72 hours), 235 nM; in assay [5] (72 hours), 1030 nM; in assay [6] (72 hours), 143 nM. The 50% inhibitory concentration (IC50) was 518 nM in [7] (72 hours); more than 10 µM in [8] (72 hours); 160 nM in assay [9] (72 hours); 4.2 nM in assay [10] (72 hours); 72.3 nM in [11].
As to `CC(C)n1c(Nc2cccc(Br)c2)nc2cnc(Nc3ccc(N4CCN(C)CC4)cc3)nc21` [Compounds 8-11], the IC50 in [1] (setting [12]) was 11.2 µM; in assay [2] (72 hours), 1190 nM; in [3] it was more than 1000 nM; in [4] (72 hours), 3760 nM; in [5] (72 hours), 575 nM; in assay [6] (72 hours), 366 nM. Further, the half-inhibitory concentration (IC50) in assay [7] (72 hours) amounted to 1680 nM; in assay [8] (72 hours) it was 1.73 µM; in [9] (72 hours), 8.8 nM; in [10] (72 hours), 0.2 nM; in [11], 0.2 nM.
For the molecule `C#Cc1cccc(Nc2nc3cnc(Nc4ccc(N5CCN(C)CC5)cc4)nc3n2C(C)C)c1` [Compounds 8-12], the IC50 is 6.61 µM in assay [1] (setting [12]); 3220 nM in assay [2] (72 hours); more than 1000 nM in [3]; 1710 nM in assay [4] (72 hours); 2140 nM in assay [5] (72 hours); 221 nM in assay [6] (72 hours). Besides, the half-inhibitory concentration (IC50) was found to be 4010 nM in [7] (72 hours); 1.93 µM in [8] (72 hours); 10.7 nM in assay [9] (72 hours); 0.2 nM in assay [10] (72 hours); 0.2 nM in assay [11].
`CC(C)n1c(Nc2ccc(F)c(Cl)c2)nc2cnc(Nc3ccc(N4CCN(C)CC4)cc3)nc21` [Compounds 8-13]: the concentration for half-maximal inhibition (IC50) in assay [1] (setting [12]) was 5.96 µM; in assay [2] (72 hours), 2100 nM; in assay [3], more than 1000 nM; in [4] (72 hours) it was 512 nM; in assay [5] (72 hours), 202 nM; in [6] (72 hours) it was 86 nM. Further, the IC50 in assay [7] (72 hours) is 2540 nM; in [8] (72 hours), 2 µM; in [9] (72 hours), 6.1 nM; in assay [10] (72 hours) it was 0.2 nM; in [11], 0.3 nM.
For `CC(C)n1c(Nc2ccc(Br)cc2)nc2cnc(Nc3ccc(N4CCN(C)CC4)cc3)nc21` [Compounds 8-15], the IC50 stood at 7.79 µM in assay [1] (setting [12]); 2300 nM in assay [2] (72 hours); 710 nM in assay [3]; 197 nM in assay [4] (72 hours); 1920 nM in assay [5] (72 hours); 303 nM in assay [6] (72 hours). The half-inhibitory concentration (IC50) in [7] (72 hours) was 2200 nM; in [8] (72 hours) it was more than 10 µM; in assay [9] (72 hours), 220 nM; in assay [10] (72 hours), 0.2 nM; in [11] it was 6.4 nM.
As to `CC(C)n1c(Nc2cccc(C(F)(F)F)c2)nc2cnc(Nc3ccc(N4CCN(C)CC4)cc3)nc21` [Compounds 8-16], the half-maximal inhibitory concentration (IC50) is 10.4 µM in assay [1] (setting [12]); 1960 nM in assay [2] (72 hours); more than 1000 nM in assay [3]; 4800 nM in assay [4] (72 hours); 1370 nM in assay [5] (72 hours); 2520 nM in assay [6] (72 hours). Moreover, the IC50 in assay [7] (72 hours) amounted to 766 nM; in assay [8] (72 hours), 1.82 µM; in assay [9] (72 hours), 129 nM; in assay [10] (72 hours), 0.2 nM; in [11] it was 16.8 nM.
As to `COc1cccc(Nc2nc3cnc(Nc4ccc(N5CCN(C)CC5)cc4)nc3n2C(C)C)c1` [Compounds 8-17], the IC50 in assay [1] (setting [12]) is more than 10 µM; in [2] (72 hours), 783 nM; in assay [3], 664 nM; in assay [4] (72 hours), 684 nM; in assay [5] (72 hours), 635 nM; in assay [6] (72 hours), 3 nM. The half-maximal inhibitory concentration (IC50) in [7] (72 hours) was determined as 813 nM; in assay [8] (72 hours), 1.9 µM; in [9] (72 hours), 29.6 nM; in assay [10] (72 hours), 0.2 nM; in [11], 2.5 nM.
`COc1ccc(Nc2nc3cnc(Nc4ccc(N5CCN(C)CC5)cc4)nc3n2C(C)C)cc1` [Compounds 8-18]: the half-maximal inhibitory concentration (IC50) in assay [1] (setting [12]) was more than 10 µM; in [2] (72 hours) it was 3170 nM; in [3], 1520 nM; in [4] (72 hours) it was 183 nM; in assay [5] (72 hours), 2120 nM; in assay [6] (72 hours), 1220 nM. Also, the IC50 was 6290 nM in assay [7] (72 hours); more than 10 µM in assay [8] (72 hours); 531 nM in assay [9] (72 hours); 117 nM in assay [10] (72 hours); 34.9 nM in [11].
Consider `CC(C)n1c(Nc2ccc(NC(=O)Nc3ccc(F)c(Cl)c3)cc2)nc2cnc(Nc3ccc(N4CCN(C)CC4)cc3)nc21` [Compounds 8-21], for which the IC50 stood at 8.93 µM in assay [1] (setting [12]); 890 nM in assay [2] (72 hours); 1330 nM in assay [3]; 279 nM in assay [4] (72 hours); 1590 nM in assay [5] (72 hours); 1340 nM in [6] (72 hours). The IC50 amounted to 772 nM in [7] (72 hours); 7.31 µM in assay [8] (72 hours); 1160 nM in assay [9] (72 hours); 51.6 nM in assay [10] (72 hours); 85.9 nM in [11].
Take `CC(C)n1c(Nc2ccc(C(=O)Nc3cccc(F)c3)cc2)nc2cnc(Nc3ccc(N4CCN(C)CC4)cc3)nc21` [Compounds 8-22]: the IC50 in assay [1] (setting [12]) is more than 10 µM; in assay [2] (72 hours) it was 1720 nM; in [3], 511 nM; in assay [4] (72 hours), 283 nM; in assay [5] (72 hours) it was 1720 nM; in assay [6] (72 hours), 921 nM. Further, the concentration for half-maximal inhibition (IC50) in assay [7] (72 hours) is 1830 nM; in [8] (72 hours) it was more than 10 µM; in assay [9] (72 hours), 1730 nM; in [10] (72 hours), more than 1000 nM; in assay [11], 2790 nM.
Take `CN1CCN(c2ccc(Nc3ncc4nc(Nc5ccccc5)n(C5CC5)c4n3)cc2)CC1` [Compounds 8-23]: the IC50 is more than 10 µM in [1] (setting [12]); 5220 nM in assay [2] (72 hours); 2790 nM in assay [3]; 241 nM in assay [4] (72 hours); 6810 nM in assay [5] (72 hours); 5200 nM in assay [6] (72 hours). For the same molecule, the IC50 was more than 10000 nM in assay [7] (72 hours); more than 10 µM in assay [8] (72 hours); 154 nM in assay [9] (72 hours); 0.2 nM in assay [10] (72 hours); 35.9 nM in [11].
In the case of `CN1CCN(c2ccc(Nc3ncc4nc(Nc5ccccc5)n(C)c4n3)cc2)CC1` [Compounds 8-24], the IC50 is more than 10 µM in assay [1] (setting [12]); 9650 nM in [2] (72 hours); 8080 nM in assay [3]; 288 nM in assay [4] (72 hours); 2410 nM in [5] (72 hours); 1420 nM in [6] (72 hours). Moreover, the IC50 in [7] (72 hours) is 1380 nM; in [8] (72 hours), more than 10 µM; in assay [9] (72 hours), 171 nM; in assay [10] (72 hours) it was 0.2 nM; in assay [11], 6 nM.
For `CN1CCN(c2ccc(Nc3ncc4nc(Nc5ccccc5)[nH]c4n3)cc2)CC1` [Compounds 8-25], the IC50 in assay [1] (setting [12]) was more than 10 µM; in [2] (72 hours), more than 10000 nM; in [3], 5350 nM; in assay [4] (72 hours), 7900 nM; in [5] (72 hours), 9990 nM; in assay [6] (72 hours), more than 10000 nM. The IC50 in assay [7] (72 hours) was more than 10000 nM; in [8] (72 hours), more than 10 µM; in assay [9] (72 hours), 1650 nM; in [10] (72 hours), 52.8 nM; in assay [11], 258 nM.
